{
  "source": "patent US9585964B2",
  "about": "“Liver targeted conjugates” (President and Fellows of Harvard College, priority 2005, dated 2017)",
  "tested_on": "hepatic injury induced by carbon tetrachloride (CCl4)",
  "experiment": "mouse model of hepatic injury induced by carbon tetrachloride (CCl4); serum ALT and AST",
  "type": "in vivo",
  "conditions": "ICR mice; for increase in serum ALT compared to the vehicle control / increase in serum AST compared to the vehicle control: CCl4",
  "description": "An indomethacin-simvastatin conjugate (Ind-S) and lovastatin alone were evaluated for possible hepatoprotective activity in a mouse model of hepatic injury induced by carbon tetrachloride (CCl4). Ind-S at 0.5, 1 and 5 μmol/kg and lovastatin at 30 mg/kg were each administered intraperitoneally 0.5 hour before and at 4 and 8 hours after CCl4 challenge. The degree of hepatic injury was manifested by increases in alanine aminotransferase (ALT) and aspartate aminotransferase (AST) levels relative to the vehicle-treated animals. A decrease of 30% or more in serum ALT or AST is considered significant protective activity. The test substances were provided at the indicated concentrations. […] The test substances were administered intraperitoneally at 0.5 hour before and 4 and 8 hours after CCl4 administration to test mice. The dosing volume was 5 mL/kg. Male ICR derived mice weighing 24±2 g and provided by BioLasco Taiwan, a Charles River Laboratories Technology Licensee, were used in the study Space allocation for animals was 29×18×13 cm for 10 mice. The animals were housed in APEC^R cages. All animals were maintained in a hygienic environment under controlled temperature (22-24° C.) and humidity (60%-70%) with 12 hours light/dark cycles for at least one week prior to use with free access to standard lab chow (LabDiet Rodent Diet, PMI Nutrition International, USA) and tap water. Seven groups of five ICR derived male mice (weighing 24±2 g) were used. Each animal was challenged with a single dose of carbon tetrachloride (CCl4, 0.1 mL/kg in 50% olive oil, PO). The test substances were administered intraperitoneally at 30 minutes before and 4, 8 hours after carbon tetrachloride challenge and the animals were sacrificed 24 hours later. Serum alanine aminotransferase (ALT) and aspartate aminotransferase (AST) levels were measured by optimized UV method using a HITACHI automatic analyzer (model 7050). Silymarin (300 mg/kg, PO) as the positive control agent was administered orally to test animals at the same time.",
  "data": [
    {"smiles": "COc1ccc2c(c1)c(CC(=O)OCCNC(=O)CCC(C)(C)C(=O)O[C@H]1C[C@@H](C)C=C3C=C[C@H](C)[C@H](CC[C@@H]4C[C@@H](O)CC(=O)O4)[C@H]31)c(C)n2C(=O)c1ccc(Cl)cc1", "note": "[Ind-S, 6(R)-[2-[8(S)-{4-(2-{2-[1-(4-Chloro-benzoyl)-5-methoxy-2-methyl-1H-indol-3-yl]-acetoxy}-ethylcarbamoyl)-2,2-dimethyl-butyryloxy}-2(S),6(R)-dimethyl-1,2,6,7,8,8,a(R)-hexahydronaphthyl-1(S)]ethyl]-4(R)-hydroxy-3,4,5,6-tetrahydro-2H-Pyran-2-one]", "values": [
      {"measurement": "reduction in serum ALT level relative to the vehicle-treated group", "setting": "5 μmol/kg IP, 0.5 h before and 4 and 8 h after CCl4, non-significant", "result": 21, "unit": "%"},
      {"measurement": "reduction of AST activity relative to the vehicle-treated group", "setting": "5 μmol/kg IP, 0.5 h before and 4 and 8 h after CCl4, serum at 24 h", "result": 34, "unit": "%"}
    ]},
    {"smiles": "COc1ccc2c(c1)c(CC(=O)O)c(C)n2C(=O)c1ccc(Cl)cc1", "note": "[indomethacin]", "values": [
      {"measurement": "increase in serum ALT compared to the vehicle control", "setting": "5 μmol/kg IP", "result": 39, "unit": "%"},
      {"measurement": "increase in serum AST compared to the vehicle control", "setting": "5 μmol/kg IP", "result": 73, "unit": "%"}
    ]},
    {"smiles": "CC[C@H](C)C(=O)O[C@H]1C[C@@H](C)C=C2C=C[C@H](C)[C@H](CC[C@@H]3C[C@@H](O)CC(=O)O3)[C@H]21", "note": "[Lovastatin]", "values": [
      {"measurement": "increase in serum ALT compared to the vehicle control", "setting": "30 mg/kg IP", "result": 17, "unit": "%"},
      {"measurement": "increase in serum AST compared to the vehicle control", "setting": "30 mg/kg IP", "result": 38, "unit": "%"}
    ]}
  ]
}
